{
  "source": "paper PMC10698186",
  "about": "(Nature Communications, 2023)",
  "key": {"[1]": {"system": "SK-BR-3, SK-OV-3, JIMT-1 and MCF7 cells", "assay": "Cell viability, all cells of Fig. 4d", "format": "cell-based", "conditions": "SK-BR-3, SK-OV-3, JIMT-1, MCF7; CellTiter Glo; n = 3 independent experiments", "protocol": "(§1) Cells were seeded in a 96-well white opaque plate at a density of 5 × 10^3/well (CHO, ATCC, CCL-61) or 1 × 10^4/well (MCF7 (ATCC, HTB-22), SK-BR-3 (ATCC, HTB-30), SK-OV-3 (ATCC, HTB-77) or JIMT-1(Beyotime, C6453)). Cells were allowed to attach for 24 h at 37 °C and 5% CO2 in humidified atmosphere. Cells were then treated with serial dilutions of Tra-CAST, Tra-CAST-MMAE and SBA-MMAE or Tra-CASTi, Tra-CASTi-MMAE and DBCO-MMAE for 96 h (BT474, MCF7, SK-BR-3). Cell viability was determined using CellTiter Glo reagents (G7571) and was normalized to the control cells. Data was analyzed by Graphpad software, and the half-maximal effective concentration (EC50) value was calculated by fitting with the log(inhibitor) vs. response module.\n10! […]\n(§2) Our selected nanobody binds to human serum albumin (HSA)7, The functional impact of inserting CAST to nanobody was evaluated by measuring the affinity to human serum albumin using Biolayer Interferometry at room temperature. […]\nCells were seeded in a 96-well white opaque plate at a density of 5 × 10^3/well (CHO) or 1 × 10^4/well (MCF7, SK-BR-3, SK-OV-3 or JIMT-1). […] Cell viability was determined using CellTiter Glo reagents (G7571) and was normalized to the control cells. Data was analyzed by Graphpad software, and the half-maximal effective concentration (EC50) value was calculated by fitting with the log(inhibitor) vs. response module. […]"}, "PBS": {"assay": "PBS", "conditions": "95 °C, up to 1 hour"}, "10 mM cysteine in PBS": {"assay": "10 mM cysteine in PBS", "conditions": "95 °C, up to 1 hour"}, "mouse plasma": {"assay": "mouse plasma", "conditions": "Male BALB/c mice, 37 °C, up to 144 h"}, "fresh serum": {"assay": "fresh serum", "conditions": "Male BALB/c mice, 37 °C, up to 20 hours (table); 21 h (methods)"}, "[2]": {"assay": "20 mM glutathione, PBS (pH 7.4)", "conditions": "37 °C, up to 22 h"}, "CHO, MCF7, SK-BR-3 cells": {"system": "CHO, MCF7, SK-BR-3 cells", "assay": "Cell viability, all cell lines of Supplementary Fig. 38", "format": "cell-based", "conditions": "96 h, CellTiter Glo", "protocol": "as §1\nDeconvolutedmass (Da) Deconvolutedmass (Da)\nSupplementary Figure 37. ESI ion series/deconvolution MS spectra: reactions between […]\ntrastuzumab-CAST and 1C and SBA-MMAE. a. […]\nas §2\nCells were seeded in a 96-well white opaque plate at a density of 5 × 10^3/well (CHO) or 1 × 10^4/well (MCF7, SK-BR-3, SK-OV-3 or JIMT-1). […] Cell viability was determined using CellTiter Glo reagents (G7571) and was normalized to the control cells. Data was analyzed by […]"}},
  "note": "“Also recorded” adds a separate entry of the source.",
  "data": [
    {"substance": "DBCO-PEG3-Glu-Val-Cit-PAB-MMAE [DBCO-MMAE]", "values": [
      {"measurement": "toxicity towards all cells", "setting": "[1]", "result": "minimal toxicity"}
    ]},
    {"substance": "DLAAEIAKHCG", "values": [
      {"measurement": "fragment found", "setting": "PBS", "result": "Maleimide hydrolysis byproduct, 1h"},
      {"measurement": "fragment found", "setting": "10 mM cysteine in PBS", "result": "Maleimide hydrolysis byproduct, 1h; also recorded: SM:DLAAEIAKHCG, 1h"}
    ]},
    {"substance": "Phenyl-PEG2-FFKKDDHAA", "values": [
      {"measurement": "cleaved bond", "setting": "mouse plasma", "result": "F-K, 18 h; also recorded: F-F, 48 h"},
      {"measurement": "fragment found", "setting": "mouse plasma", "result": "Phenyl-PEG2-FFKK, 48 h"}
    ]},
    {"substance": "Phenyl-PEG2-IAPDDHAA", "values": [
      {"measurement": "not cleaved", "setting": "mouse plasma", "result": "remained intact following incubation in plasma for 144 h"}
    ]},
    {"substance": "Phenyl-PEG2-SPG-FFKKDDHAA", "values": [
      {"measurement": "cleaved bond", "setting": "fresh serum", "result": "P-G, 3 hours; also recorded: F-K, 3 hours; also recorded: G-F, 3 hours"}
    ]},
    {"substance": "Phenyl-PEG2-SPG-HAQDDHAA", "values": [
      {"measurement": "cleaved bond", "setting": "fresh serum", "result": "P-G, 3 hours"}
    ]},
    {"substance": "Phenyl-PEG2-SPG-IAPDDHAA", "values": [
      {"measurement": "cleaved bond", "setting": "fresh serum", "result": "G-I, 3 hours; also recorded: D-D, 20 hours; also recorded: P-G, 20 hours"}
    ]},
    {"substance": "Phenyl-PEG2-SPG-IAQDDHAA", "values": [
      {"measurement": "cleaved bond", "setting": "fresh serum", "result": "G-I, 3 hours"}
    ]},
    {"substance": "Phenyl-PEG2-SPG-IKAQDDHAA", "values": [
      {"measurement": "cleaved bond", "setting": "fresh serum", "result": "I-K, 3 hours; also recorded: G-I, 3 hours; also recorded: A-Q, 3 hours; also recorded: P-G, 3 hours"}
    ]},
    {"substance": "Phenyl-PEG2-SPG-INDPDDHAA", "values": [
      {"measurement": "cleaved bond", "setting": "fresh serum", "result": "P-G, 3 hours; also recorded: G-I, 20 hours"}
    ]},
    {"substance": "Phenyl-PEG2-SPG-KAQDDHAA", "values": [
      {"measurement": "cleaved bond", "setting": "fresh serum", "result": "P-G, 3 hours; also recorded: G-K, 3 hours"}
    ]},
    {"substance": "Phenyl-PEG2-SPG-LKQDDHAA", "values": [
      {"measurement": "cleaved bond", "setting": "fresh serum", "result": "G-L, 3 hours"}
    ]},
    {"substance": "Phenyl-PEG2-SPG-MEQDDHAA", "values": [
      {"measurement": "cleaved bond", "setting": "fresh serum", "result": "G-M, 3 hours; also recorded: P-G, 3 hours"}
    ]},
    {"substance": "Phenyl-PEG2-SPG-NAPDDHAA", "values": [
      {"measurement": "cleaved bond", "setting": "fresh serum", "result": "G-N, 20 hours; also recorded: P-G, 20 hours"}
    ]},
    {"substance": "Phenyl-PEG2-SPG-NAQDDHAA", "values": [
      {"measurement": "cleaved bond", "setting": "fresh serum", "result": "G-N, 3 hours; also recorded: P-G, 3 hours"}
    ]},
    {"substance": "Phenyl-PEG2-SPG-NEQDDHAA", "values": [
      {"measurement": "cleaved bond", "setting": "fresh serum", "result": "P-G, 3 hours; also recorded: G-N, 20 hours"}
    ]},
    {"substance": "Phenyl-PEG2-SPG-NKKDDHAA", "values": [
      {"measurement": "cleaved bond", "setting": "fresh serum", "result": "G-N, 3 hours"}
    ]},
    {"substance": "Phenyl-PEG2-SPG-SHAQDDHAA", "values": [
      {"measurement": "cleaved bond", "setting": "fresh serum", "result": "G-S, 3 hours; also recorded: P-G, 3 hours"}
    ]},
    {"substance": "Phenyl-PEG2-SPG-SKAQDDHAA", "values": [
      {"measurement": "cleaved bond", "setting": "fresh serum", "result": "G-S, 3 hours; also recorded: P-G, 3 hours"}
    ]},
    {"substance": "WCGIAPDDHAA [maleimide modified WCGIAPDDHAA]", "values": [
      {"measurement": "fragment found", "setting": "[2]", "result": "released free peptide WCGIAPDDHAA, 22 h; also recorded: maleimide hydrolysis byproducts, 22 h"}
    ]},
    {"substance": "WCGIAPDDHAA [maleimide-WCGIAPDDHAA]", "values": [
      {"measurement": "fragment found", "setting": "[2]", "result": "WCGIAPDDHAA, 22 h"}
    ]},
    {"substance": "styrylboronic acid-Val-Cit-PAB-monomethyl auristatin E [SBA-MMAE]", "values": [
      {"measurement": "toxicity in all cell lines at the tested concentrations", "setting": "CHO, MCF7, SK-BR-3 cells", "result": "displayed toxicity and could not effectively distinguish HER2-negative MCF7 cells or HER2-positive SK-BR-3 cells"}
    ]}
  ]
}
